Source: US20050266509A1, “Interaction of NMDA receptor with protein tyrosine phosphatase” (AGY Therapeutics, Inc., priority 2003, published 2005)
Entries after “also recorded” stand apart in the source; their conditions may differ.

Experiments:
PTPMEG [1] = molecular target: T1, PTPMEG (Homo sapiens, UniProt P29074); test: TR-FRET phosphatase activity assay, PTPMEG; type: biochemical
T1 construct: Asp-Ser-6xHis (N); made in house; host or cells: E. coli BL21(DE3)
T1 sequence (P29074 655-911 limits assumed): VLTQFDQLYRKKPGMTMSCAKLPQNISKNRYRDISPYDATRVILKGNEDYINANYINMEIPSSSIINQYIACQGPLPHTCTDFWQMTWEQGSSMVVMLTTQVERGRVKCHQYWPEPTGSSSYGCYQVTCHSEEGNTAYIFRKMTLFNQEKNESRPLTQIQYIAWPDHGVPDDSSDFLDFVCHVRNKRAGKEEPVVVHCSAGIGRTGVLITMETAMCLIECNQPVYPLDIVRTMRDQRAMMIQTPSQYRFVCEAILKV
Description: Expression and Purification of PTPMEG The DNA sequence encoding the C-terminal 326 residues of PTPMEG (phosphatase domain) was subcloned into the pET-17b vector (Novagen) between the Ndel and Xhol restriction sites. An N-terminal tag consisting of Asp-Ser-6×His was incorporated at the beginning of the protein sequence. Protein expression was performed in BL21(DE3) cells at 37° C. with a 4 hour 0.5 mM IPTG induction. The cells were harvested by centrifugation and stored at −80° C. until needed for protein purification. Protein purification consisted of cell lysis by sonication, immobilized metal affinity chromatography (IMAC) on a Ni^2+-NTA column (Qiagen), followed by hydrophobic interaction chromatography (HIC) on a phenyl sepharose column (Amersham Pharmacia Biotech) and/or ion exchange chromatography (IEC) on a Q sepharose column (Amersham Pharmacia Biotech). The purified 38.3 kDa protein was buffer exchanged into 50 mM HEPES, pH 7.5 and stored at −80° C.
Phosphatase Buffer: 50 mm HEPES, pH 8; 1 mM DDT; 2 mM EDTA; 0.01% Brij solution; 10 mM MgCl2. […]
The plates are then placed in the plate reader, an Analyst HT. […] Fluorescence resonance energy transfer (FRET) from Eu-Ab to APC will only occur when they are in close proximity. […]

CD45 = molecular target: T2, CD45 (Homo sapiens, UniProt P08575); test: FRET phosphatase assay, CD45; type: biochemical
T2 sequence (P08575 26-1306): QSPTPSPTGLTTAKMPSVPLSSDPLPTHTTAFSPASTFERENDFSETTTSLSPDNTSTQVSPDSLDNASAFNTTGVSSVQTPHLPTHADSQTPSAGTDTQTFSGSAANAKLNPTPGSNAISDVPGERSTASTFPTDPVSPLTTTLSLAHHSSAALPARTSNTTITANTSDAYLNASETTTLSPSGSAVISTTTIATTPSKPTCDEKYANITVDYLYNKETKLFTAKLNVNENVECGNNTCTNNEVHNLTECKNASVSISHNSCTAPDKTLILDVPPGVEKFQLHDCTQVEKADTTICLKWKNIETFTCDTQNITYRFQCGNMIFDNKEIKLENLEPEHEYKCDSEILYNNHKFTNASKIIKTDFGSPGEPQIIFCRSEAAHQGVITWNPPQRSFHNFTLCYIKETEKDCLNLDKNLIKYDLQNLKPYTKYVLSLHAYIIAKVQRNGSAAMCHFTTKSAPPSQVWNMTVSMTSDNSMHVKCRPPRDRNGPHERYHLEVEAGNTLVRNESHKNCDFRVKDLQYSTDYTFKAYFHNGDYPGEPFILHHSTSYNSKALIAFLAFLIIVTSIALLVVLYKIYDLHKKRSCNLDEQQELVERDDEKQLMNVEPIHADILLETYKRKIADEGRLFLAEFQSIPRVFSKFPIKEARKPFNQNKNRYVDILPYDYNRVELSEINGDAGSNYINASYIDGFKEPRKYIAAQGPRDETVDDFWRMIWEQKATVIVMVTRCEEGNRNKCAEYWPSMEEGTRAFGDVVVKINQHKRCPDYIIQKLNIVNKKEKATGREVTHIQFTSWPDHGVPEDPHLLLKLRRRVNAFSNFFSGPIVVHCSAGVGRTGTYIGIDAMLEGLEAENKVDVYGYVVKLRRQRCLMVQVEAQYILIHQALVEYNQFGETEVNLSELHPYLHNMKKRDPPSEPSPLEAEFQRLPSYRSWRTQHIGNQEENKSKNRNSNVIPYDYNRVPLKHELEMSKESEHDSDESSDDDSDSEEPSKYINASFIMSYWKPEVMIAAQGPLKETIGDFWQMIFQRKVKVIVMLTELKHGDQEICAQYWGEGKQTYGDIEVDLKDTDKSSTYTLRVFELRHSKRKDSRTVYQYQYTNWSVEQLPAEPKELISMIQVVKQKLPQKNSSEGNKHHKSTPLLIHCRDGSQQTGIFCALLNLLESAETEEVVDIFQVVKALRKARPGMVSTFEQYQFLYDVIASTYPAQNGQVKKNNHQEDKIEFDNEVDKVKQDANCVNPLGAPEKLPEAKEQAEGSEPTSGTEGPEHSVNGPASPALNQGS
Description: (§1) For the enzyme activity assay, 2.5 μl of compound, 12.5 μl of enzyme, and 10 μl of substrate (separated by air gaps) are added to columns 3 through 24 by the Biomek FX in a single dispense. After the dispense, the tips are washed with DMSO and water for re-use between each quadrant. Once the assay plates are set up, they are incubated at 27° C. for 45 minutes. Then 20 μl of detection buffer is added to stop the reaction and to allow the Europium antibody (Eu-Ab) and streptavidin-APC to bind to the substrate.
(§2) The plates are then placed in the plate reader, an Analyst HT. Excitation light at 360 nm is used to excite the Europium antibody with an emission at 620 nm. Fluorescence resonance energy transfer (FRET) from Eu-Ab to APC will only occur when they are in close proximity. Therefore, when an APC emission is observed at 665 nm the enzyme has been inhibited from removing the phosphate group from the substrate. The FRET assay is time-resolved (TR), where there is a delay between excitation light and collection of emission signals. This reduces the amount of stray light created by short-lived fluorescing molecules. The Analyst HT measures APC and Europium emission signals and calculates the ratio between the two intensities. Typical intensities for the Europium is ˜2000 and APC is ˜600.
(§3) The following compounds were tested by FRET against the listed phosphatases, and the IC50 were obtained. […]

PTPB = PTPB (Homo sapiens, UniProt P23467); test: FRET phosphatase assay, PTPB; type: biochemical
Description: as §1, §2, §3

T Cell = molecular target: T3, T Cell (Homo sapiens, UniProt P17706); test: FRET phosphatase assay, T Cell; type: biochemical
T3 sequence (P17706 1-415): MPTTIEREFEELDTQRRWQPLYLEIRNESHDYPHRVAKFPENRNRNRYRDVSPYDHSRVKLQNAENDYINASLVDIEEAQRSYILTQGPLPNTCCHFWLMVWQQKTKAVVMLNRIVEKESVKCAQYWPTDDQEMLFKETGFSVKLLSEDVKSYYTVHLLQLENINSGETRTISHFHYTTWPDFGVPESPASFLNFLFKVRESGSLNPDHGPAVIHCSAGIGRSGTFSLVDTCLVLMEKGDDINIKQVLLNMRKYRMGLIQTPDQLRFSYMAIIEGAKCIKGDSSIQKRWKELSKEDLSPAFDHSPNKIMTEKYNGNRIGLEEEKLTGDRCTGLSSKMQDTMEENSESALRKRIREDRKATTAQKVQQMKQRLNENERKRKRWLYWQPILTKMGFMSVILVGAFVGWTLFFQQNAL
Description: as §1, §2, §3

mice = test: Amphetamine-induced hyperactivity model (open field); conditions: 5 mg/kg SC, 60 min recording period
PTPMEG [2] = molecular target: T4, PTPMEG (Homo sapiens, UniProt P29074); test: Western blot of NR2B and Src phosphorylation in NR1/NR2B stable cell line transfected with active Src and PTPMEG; type: cell-based; conditions: 48 h post transfection
T4 construct: expressed in transfected cells
T4 sequence (P29074 1-926): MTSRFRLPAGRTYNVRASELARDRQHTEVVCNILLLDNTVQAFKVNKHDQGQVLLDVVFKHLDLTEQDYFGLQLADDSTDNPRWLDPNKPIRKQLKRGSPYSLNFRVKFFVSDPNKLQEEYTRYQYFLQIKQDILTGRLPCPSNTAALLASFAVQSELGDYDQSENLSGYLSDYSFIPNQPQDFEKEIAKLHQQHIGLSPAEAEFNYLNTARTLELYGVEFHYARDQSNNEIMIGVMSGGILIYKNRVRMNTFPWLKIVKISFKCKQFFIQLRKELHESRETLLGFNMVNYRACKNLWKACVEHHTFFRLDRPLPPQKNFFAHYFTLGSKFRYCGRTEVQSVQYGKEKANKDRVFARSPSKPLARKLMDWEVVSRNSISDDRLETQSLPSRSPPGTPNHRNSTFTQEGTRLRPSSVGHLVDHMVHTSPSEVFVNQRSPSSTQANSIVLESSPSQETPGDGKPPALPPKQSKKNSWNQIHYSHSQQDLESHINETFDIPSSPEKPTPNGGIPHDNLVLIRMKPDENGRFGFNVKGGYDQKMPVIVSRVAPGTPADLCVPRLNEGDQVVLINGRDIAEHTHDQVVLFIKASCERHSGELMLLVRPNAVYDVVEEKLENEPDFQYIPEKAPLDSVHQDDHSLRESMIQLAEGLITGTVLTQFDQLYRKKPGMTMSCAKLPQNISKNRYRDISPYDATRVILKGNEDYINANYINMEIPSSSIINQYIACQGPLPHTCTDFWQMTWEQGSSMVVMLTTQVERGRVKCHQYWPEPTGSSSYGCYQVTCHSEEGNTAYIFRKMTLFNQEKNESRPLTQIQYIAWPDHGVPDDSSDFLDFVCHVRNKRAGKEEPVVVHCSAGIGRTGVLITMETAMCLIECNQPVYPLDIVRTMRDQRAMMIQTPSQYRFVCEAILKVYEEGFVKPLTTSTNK
Description: A stable cell line, expressing the NMDA receptor subunit NR1 together with NR2B was transiently transfected with constitutive active Src kinase and PTPMEG, wildtype and dominant negative CS mutant, respectively. Control experiments included dephostatin, a generic tyrosine phosphatase inhibitor. 48 h post transfection cells were lysed and subsequently analyzed by western blot. In presence of the active wildtype PTPMEG phosphatase, both the NR2B subunit as well as Src kinase were dephosphorylated, shown in FIG. 3. […] NR2B phosphorylation by Src kinase was detected by an NR2B phosphospecific antibody. Dephosphorylation of NR2B and Src kinase was reversed by addition of dephostatin, and unaffected in presence of the dominant negative form of PTPMEG (CS). (FIG. 5)

PTPMEG [3] = molecular target: T4, PTPMEG; test: Western blot of Src/fyn Y418 phosphorylation in NR1/NR2B stable cell line transfected with active Src or fyn and PTPMEG; type: cell-based; conditions: 500 μM, 3 hours, 48 hrs post-transfection
From the text: PTPMEG Dephosphorylates Protein Kinases Src and fyn. A stable cell line expressing the NR1 and NR2B subunits of the NMDA receptor was transiently transfected with constitutive active Src Srcor constitutive active fyn (fyn Y530F, where the tyrosine at position 530 is substituted by a phenylalanine) and PTPMEG, from a full length PTPMEG (amino-terminal myc-tag, c-terminal HA tag) expression construct in the pRK5 vector, with a CMV-driven promoter.
48 hrs post-transfection the cells were stimulated with 500 μM sodium orthovanadate, a […] for 3 hours. Cells were lysed and analyzed by western blot using a Src/fyn specific phosphoantibody (from Biosource) that recognizes the residue Y418 critical for activity for both Src and fyn. In presence of PTPMEG (identified with a c-myc antibody from Upstate) there is a dephosphorylation of Src and fyn at position Y418. This dephosphorylation is reversed by sodium orthovanadate. A pan Src antibody that recognizes total Src and fyn is used as a loading control.

PTPB, sequence (P23467 1643-1997 limits assumed): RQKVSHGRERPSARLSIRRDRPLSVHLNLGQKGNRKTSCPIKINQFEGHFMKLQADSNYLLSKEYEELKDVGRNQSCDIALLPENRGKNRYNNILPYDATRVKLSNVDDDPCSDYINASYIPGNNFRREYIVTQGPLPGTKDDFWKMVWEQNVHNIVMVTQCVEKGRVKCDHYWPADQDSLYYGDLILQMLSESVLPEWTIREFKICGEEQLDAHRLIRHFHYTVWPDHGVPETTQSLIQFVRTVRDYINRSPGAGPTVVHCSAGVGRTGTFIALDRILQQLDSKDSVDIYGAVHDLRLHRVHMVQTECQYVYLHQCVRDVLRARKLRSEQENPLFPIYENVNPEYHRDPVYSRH

O=C(O)CN1C(=O)c2cccc3cccc1c23 [AGY- 0041763]
IC50 (PTPMEG [1]): 0.56 µM | IC50 (CD45): > 500 µM | IC50 (PTPB): > 500 µM | IC50 (T Cell): > 500 µM

C[C@H](N)Cc1ccccc1 [d-amphetamine]
Locomotion (total distance in the open field) (mice): significantly increases

CN(N=O)c1cc(O)ccc1O [dephostatin]
Dephosphorylation of NR2B by PTPMEG (PTPMEG [2]; NR2B phosphospecific antibody western blot): reversed | Dephosphorylation of Src kinase (position 418) by PTPMEG (PTPMEG [2]; anti PY418 western blot): reversed; also recorded: restores phosphorylation

[Na+].[Na+].[Na+].[O]=[V]([O-])([O-])[O-] [sodium orthovanadate]
Dephosphorylation of Src and fyn at position Y418 by PTPMEG (PTPMEG [3]): reversed
